Measurements taken from patent US20210196654A1, “METHOD OF TREATING CONDITIONS” (Clexio Biosciences Ltd., priority 2019, published 2021).
Read-outs that look alike come from different tables or passages of the source.

Assays:
[1] = Single dose crossover study in healthy volunteers, pharmacokinetics; conditions: both, human, plasma; for AUC(0-inf): AUC0-inf; for AUC(0-inf) / AUC(0-t) / Cmax: geometric mean; for AUC(0-t): AUC0-t; for Cmax: 15 subjects; for half-life: t1/2, geometric mean; for Tmax: median
Source text: A randomized, open-label 4-way crossover study in 16 healthy male and female subjects was held wherein said subjects were placed in a randomly assigned order and administered esketamine. Each subject was assigned to 1 of 4 treatment sequences according to a randomization code such that 4 subjects were assigned to each treatment sequence. There was a wash-out period of at least 7 days between dosing periods with doses consisting of either oral or intravenous esketamine hydrochloride. The study consisted of an eligibility screening period of 28 days, 4 study periods involving administration of a single dose of esketamine hydrochloride followed by safety assessments with blood sampling for PK purposes up to 72 hours after study drug administration, discharge at 72 hours after study drug administration and a follow-up visit 7-14 days after the last PK blood sample was taken on Day 4.

[2] = test system: animal models of depression; conditions: cited from earlier work
[3] = test system: human peripheral blood lymphocytes (HPBL)
Protocol: (§1) The clastogenic potential of (S)-norketamine was evaluated in the in vitro mammalian chromosome aberration test using human peripheral blood lymphocytes (HPBL) in both the absence and presence of an induced metabolic activation system (the 9000 g supernatant [S9] microsomal fraction of liver homogenate from rats exposed to phenobarbital/5,6-benzoflavone).
The study was conducted in 2 phases, with a preliminary toxicity test used to determine the appropriate concentrations for the definitive chromosomal aberration assay. Water was used as a negative (vehicle) control. In both phases, the cells were treated for 3 and 21 hours in the absence of S9 mix and for 3 hours in the presence of S9 mix. The mitotic index was assessed for all cultures to determine cytotoxicity. Ten concentrations, ranging from […], were evaluated in the preliminary toxicity test.

[4] = test system: human peripheral blood lymphocytes (HPBL); remark: listed apart in the source
Protocol: as §1, with “esketamine” for “(S)-norketamine”, “Aroclor-1254).” for “phenobarbital/5,6-benzoflavone).”
The study was conducted in 2 phases, with a preliminary toxicity test used to determine the appropriate concentrations for the definitive chromosomal aberration assay. Water was used as a negative (vehicle) control. Toxicity (defined as >45% reduction in MI relative to the vehicle control) was evaluated at 9 concentrations, ranging from 0.0238 to 238 μg/ml, after exposure of HPBL to esketamine for 20 hours in the absence of S9 activation, or for 4 hours, either in the presence or absence of S9 activation, followed by a 16-hour recovery period.
The definitive chromosome aberration assay evaluated HPBL cells after exposure to esketamine for 20 hours in the absence of S9 activation, or for 4 hours, either in the presence of absence of S9 activation, followed by a 16-hour recovery. Positive controls for chromosomal aberrations in non-activated and S9-activated evaluations, respectively, consisted of mitomycin C (MMC, 0.6 and 0.3 μg/mL for the 4- and 20-hour exposures, respectively) and cyclophosphamide (CP, 2.5, 5, and 7.5 μg/mL). […] Initially, the doses selected for evaluation of chromosomal aberrations were 60, 120, and 238 μg/mL for the non-activated 4- and 20-hour treatment conditions; and 30, 60, and 200 μg/mL for the S9-activated 4-hour treatment condition.

[5] = Yanagihara et al (2003); cited from earlier work
bipolar disorder = conditions: intravenous; cited from earlier work
[6] = test system: Generalized Anxiety and Social Anxiety Disorder patients; conditions: treatment-refractory patients; cited from earlier work
[7] = test system: Parkinson's disease sufferers; conditions: cited from earlier work
chronic pain = conditions: oral; cited from earlier work
[8] = iv, 0.3 mg/kg, plasma analyte after single dose esketamine 0.3 mg/kg iv
[9] = po, 20 mg, plasma analyte after single dose esketamine 20 mg oral solution
[10] = po, 20 mg, plasma analyte after single dose esketamine 20 mg oral tablet
[11] = po, 100 mg, plasma analyte after single dose esketamine 100 mg oral tablet
[12] = S9-activated system, positive control

`N[C@]1(c2ccccc2Cl)CCC[C@H](O)C1=O` [(2S,6S)-OH-Norketamine, (2S,6S)-2-Amino-2-(2-chlorophenyl)-6-hydroxycyclohexanone] gave an AUC(0-inf) [1, 8] of 0.39 µg·h/mL, an AUC(0-t) [1, 8] of 0.376 µg·h/mL and a Cmax [1, 8] of 0.0248 µg/mL. It also gave a half-life [1, 8] of 10.7 h, a Tmax [1, 8] of 3 h and an AUC(0-inf) [1, 9] of 0.378 µg·h/mL. The AUC(0-inf) [1, 10] was 0.401 µg·h/mL, the AUC(0-t) [1, 9] was 0.366 µg·h/mL and the AUC(0-t) [1, 10] was 0.39 µg·h/mL. It also gave a Cmax [1, 9] of 0.0465 µg/mL, a Cmax [1, 10] of 0.0457 µg/mL and a half-life [1, 9] of 7.83 h. For the same molecule, the half-life [1, 10] was 7.77 h, the Tmax [1, 9] was 1 h and the Tmax [1, 10] was 1.5 h. For the same molecule, the AUC(0-inf) [1, 11] was 1.96 µg·h/mL, the AUC(0-t) [1, 11] was 1.95 µg·h/mL and the Cmax [1, 11] was 0.189 µg/mL. For the same molecule, the half-life [1, 11] was 8.92 h and the Tmax [1, 11] was 2 h.
For `CN[C@@]1(c2ccccc2Cl)CCCCC1=O` [(R)-ketamine, (2R)-2-(2-Chlorophenyl)-2-(methylamino) cyclohexanone], the “antidepressant effects compared with esketamine” value [2] is given as “greater potency and longer-lasting antidepressant effects than esketamine”.
`N[C@]1(c2ccccc2Cl)CCCCC1=O` [(S)-norketamine, (2S)-2-(2-Chlorophenyl)-2-(amino) cyclohexanone] showed an AUC(0-inf) [1, 8] of 0.441 µg·h/mL, an AUC(0-t) [1, 8] of 0.426 µg·h/mL and a Cmax [1, 8] of 0.0423 µg/mL. For the same molecule, the half-life [1, 8] was 11.3 h, the Tmax [1, 8] was 1.25 h and the AUC(0-inf) [1, 9] was 0.417 µg·h/mL. The AUC(0-inf) [1, 10] was 0.429 µg·h/mL, the AUC(0-t) [1, 9] was 0.405 µg·h/mL and the AUC(0-t) [1, 10] was 0.418 µg·h/mL. For the same molecule, the Cmax [1, 9] was 0.0998 µg/mL, the Cmax [1, 10] was 0.0897 µg/mL and the half-life [1, 9] was 8.88 h. The half-life [1, 10] was 8.75 h, the Tmax [1, 9] was 0.75 h and the Tmax [1, 10] was 1 h. For the same molecule, the AUC(0-inf) [1, 11] was 2.28 µg·h/mL, the AUC(0-t) [1, 11] was 2.27 µg·h/mL and the Cmax [1, 11] was 0.352 µg/mL. For the same molecule, the half-life [1, 11] was 9.27 h, the Tmax [1, 11] was 1 h and the “Toxicity (mitotic index), preliminary toxicity test” value [3] was “not observed at any dose”. For the same molecule, the “clastogenicity, conclusion” value [3] was “non-clastogenic”, the “proportion of metaphase figures containing chromosomal aberrations vs vehicle control” value [3] was “no statistically significant increases” and the “proportion of polyploid or endoreduplicated metaphase cells vs vehicle control” value ([3]; any treatment condition) was “No statistically significant increases”.
For `O=P1(N(CCCl)CCCl)NCCCO1` (centres unmarked) [CP, cyclophosphamide], the “cells with structural aberrations” value [4, 12] was 10.7%, the “mean MI value” [4, 12] was 6.2% and the “proportion of aberrant cells” value ([3]; positive control compounds) was “statistically significant increases”.
For `CO[C@@]12[C@H](COC(N)=O)C3=C(C(=O)C(C)=C(N)C3=O)N1C[C@@H]1N[C@@H]12` [MMC, mitomycin C], the “cells with structural chromosomal aberrations” value [4] was 13.3%, the “mean MI value” ([4]; non-activated systems, positive control) was 9% and the “proportion of aberrant cells” value [3] was “statistically significant increases”.
For `CNC1(c2ccccc2Cl)CCCCC1=O` (stereo not drawn) [ketamine, dl 2-(2-chlorophenyl)-2(methylamino) cyclohexanone], the nasal bioavailability [5] is given as 45%, the “effect in bipolar disorder” value (bipolar disorder) is given as “robust and rapid effect” and the anxiety ratings [6] is given as “improvement in anxiety ratings within an hour of ketamine dosing which persisted for up to a week”. The levodopa induced dyskinesia [7] was “could reduce levodopa induced dyskinesia” and the chronic pain (chronic pain) was “could reduce chronic pain”.
